Test results: US20250144067A1, “PERSONALIZED STARVATION THERAPY FOR CANCER” (Faeth Therapeutics, Inc., priority 2021, published 2025)
Counter-ions that a name gives are not always drawn. Like-named read-outs stand apart in the source and are kept apart here.

Key:
[1] = test system: NCI-H292 lung cancer cells; test: FDA drug screening, complete media vs cholesterol-free media with simvastatin (TABLE 2); assay type: cell-based, human
[2] = test system: NCI-H292 lung cancer cells; test: FDA drug screening, complete media vs cholesterol-free media without statin (TABLE 1); assay type: cell-based, human
[3] = NCI-H292 cells, cholesterol-free media with simvastatin 0.04 μM, FDA drug library screen (TABLE 2)
[4] = NCI-H292 cells, complete media, FDA drug library screen (TABLE 2)
[5] = complete media minus cholesterol-free media + simvastatin (0.04 μM), >0 enhanced anti-cancer activity, about 0 neutral, <0 antagonist
[6] = NCI-H292 cells, cholesterol-free media without statin
[7] = complete vs cholesterol-free media, greater than 0 enhanced anti-cancer activity, about 0 neutral, below 0 antagonists
[8] = NCI-H292 cells, cholesterol-free media with simvastatin 0.04 μM, cell growth value in FDA drug screen
[9] = NCI-H292 cells, complete media, cell growth value in FDA drug screen
[10] = complete media minus cholesterol-free media + simvastatin, >0 enhanced anti-cancer activity, about 0 neutral, <0 antagonist
[11] = Complete minus Cholesterol-free, >0 enhanced anti-cancer activity, about 0 neutral, <0 antagonist
[12] = NCI-H292 cells, cholesterol-free media without statin, FDA drug library screen
[13] = NCI-H292 cells, complete media, FDA drug library screen
[14] = complete media minus cholesterol-free media + simvastatin (0.04 μM), […]
[15] = Complete minus Cholesterol-free, […]
[16] = Complete minus Cholesterol-free, greater than 0 enhanced anti-cancer activity, about 0 neutral, below 0 antagonists
[17] = NCI-H292 cells in cholesterol-free media without statin
[18] = NCI-H292 cells in complete media
[19] = NCI-H292 cells, drug in cholesterol-free media with simvastatin 0.04 μM
[20] = NCI-H292 cells, drug in complete media
[21] = complete media vs cholesterol-free media + simvastatin (0.04 μM), >0 enhanced anti-cancer activity, about 0 neutral, <0 antagonist
[22] = Complete minus Cholesterol-free, greater than 0 enhanced anti-cancer activity, about 0 neutral, below 0 antagonist
[23] = NCI-H292 cells, FDA drug library screen, cholesterol-free media without statin
[24] = NCI-H292 cells, FDA drug library screen, complete media
[25] = NCI-H292 cells, FDA library drug in cholesterol-free media with simvastatin 0.04 μM
[26] = complete vs cholesterol-free media, >0 enhanced anti-cancer activity, about 0 neutral, <0 antagonist
[27] = NCI-H292 cells, FDA drug library screen, cholesterol-free media with simvastatin 0.04 μM
[28] = NCI-H292 cells, FDA library drug in complete media

Cc1c(O)c(=O)ccn1C [Deferiprone]
Cholesterol-free media + simvastatin (0.04 μM) [1, 3]: 1.047
Complete Media [1, 4]: 1.061
Difference [1, 5]: 0.01
Cholesterol-free [2, 6]: 1.443
Complete ([2]; NCI-H292 cells, complete media): 1.044
Difference [2, 7]: −0.40

CC1(C)O[C@@H]2C[C@H]3[C@@H]4CCC5=CC(=O)C=C[C@]5(C)[C@H]4[C@@H](O)C[C@]3(C)[C@]2(C(=O)CO)O1 [Desonide]
Cholesterol-free media + simvastatin (0.04 μM) [1, 8]: 0.6303
Complete Media [1, 9]: 0.7658
Difference [1, 10]: 0.14
Difference [2, 11]: −0.07
Cholesterol-free [2, 12]: 0.6524
Complete [2, 13]: 0.5811

(−)-Huperzine A
Cholesterol-free media + simvastatin (0.04 μM) [1, 3]: 1.198
Complete Media [1, 4]: 1.208
Difference [1, 14]: 0.01
Difference [2, 15]: 0.00
Cholesterol-free [2, 12]: 1.621
Complete [2, 13]: 1.617

CC(C)c1nc(N(C)S(C)(=O)=O)nc(-c2ccc(F)cc2)c1/C=C/[C@@H](O)C[C@@H](O)CC(=O)O [Rosuvastatin (Calcium)]
Cholesterol-free media + simvastatin (0.04 μM) [1, 8]: 0.9188
Complete Media [1, 9]: 1.001
Difference [1, 10]: 0.08
Difference [2, 11]: −0.24
Cholesterol-free [2, 6]: 1.156
Complete ([2]; NCI-H292 cells, complete media): 0.9201

Loxapine (succinate)
Cholesterol-free media + simvastatin (0.04 μM) [1, 8]: 1.274
Complete Media [1, 9]: 1.361
Difference [1, 10]: 0.09
Difference [2, 16]: −0.72
Cholesterol-free [2, 17]: 1.602
Complete [2, 18]: 0.8776

CCS(=O)(=O)CCn1c([N+](=O)[O-])cnc1C [Tinidazole]
Cholesterol-free media + simvastatin (0.04 μM) [1, 19]: 0.8398
Complete Media [1, 20]: 0.6611
Difference [1, 21]: −0.18
Difference [2, 22]: −0.13
Cholesterol-free [2, 23]: 1.121
Complete [2, 24]: 0.9876

NC(=O)N/N=C/c1ccc([N+](=O)[O-])o1 [Nitrofurazone]
Cholesterol-free media + simvastatin (0.04 μM) [1, 25]: 1.854
Difference [1, 21]: −0.70
Cholesterol-free [2, 12]: 1.281
Complete [2, 13]: 1.416
Difference [2, 26]: 0.13

COc1ccccc1Oc1c(NS(=O)(=O)c2ccc(C(C)(C)C)cc2)nc(-c2ncccn2)nc1OCCO [Bosentan (hydrate)]
Cholesterol-free media + simvastatin (0.04 μM) [1, 3]: 1.256
Complete Media [1, 4]: 1.269
Difference [1, 5]: 0.01
Difference [2, 22]: −0.13
Cholesterol-free [2, 23]: 1.31
Complete [2, 24]: 1.181

Nc1c2c(nc3ccccc13)CCCC2 [Tacrine (hydrochloride)]
Cholesterol-free media + simvastatin (0.04 μM) [1, 27]: 1.139
Complete Media [1, 24]: 1.054
Difference [1, 21]: −0.08
Cholesterol-free [2, 6]: 1.218
Complete ([2]; NCI-H292 cells, complete media): 0.7601
Difference [2, 7]: −0.46

CN(C)N(C)C(=O)[C@@]1(Cc2ccccc2)CCCN(C(=O)[C@@H](Cc2c[nH]c3ccccc23)NC(=O)C(C)(C)N)C1 [Anamorelin]
Cholesterol-free media + simvastatin (0.04 μM) [1, 8]: 1.263
Complete Media [1, 9]: 1.358
Difference [1, 10]: 0.10
Difference [2, 16]: −0.54
Cholesterol-free [2, 17]: 1.02
Complete [2, 18]: 0.4827

Amlodipine (maleate)
Cholesterol-free media + simvastatin (0.04 μM) [1]: 1.087
Complete Media [1]: 0.7885
Difference [1]: −0.30
Cholesterol-free [2]: 1.127
Complete [2]: 0.9069
Difference [2]: −0.22

CC1CCC(C(C)C)C(O)C1 (stereo not shown) [Menthol]
Cholesterol-free media + simvastatin (0.04 μM) [1, 19]: 1.031
Complete Media [1, 20]: 0.8642
Difference [1, 21]: −0.17
Cholesterol-free [2, 12]: 0.9443
Complete [2, 13]: 1.129
Difference [2, 26]: 0.19

CC(C)n1nccc1-c1ncccc1COc1cccc(O)c1C=O [Voxelotor]
Cholesterol-free media + simvastatin (0.04 μM) [1, 25]: 1.853
Complete Media [1, 28]: 1.475
Difference [1, 21]: −0.38
Cholesterol-free [2, 6]: 1.146
Complete ([2]; NCI-H292 cells, complete media): 0.7013
Difference [2, 7]: −0.44

O=C(CCCc1ccccc1)OCC(COC(=O)CCCc1ccccc1)OC(=O)CCCc1ccccc1 [Glycerol phenylbutyrate]
Cholesterol-free media + simvastatin (0.04 μM) [1, 25]: 1.737
Complete Media [1, 28]: 1.34
Difference [1, 21]: −0.40
Difference [2, 22]: −0.17
Cholesterol-free [2, 23]: 1.054
Complete [2, 24]: 0.8817

[H]/N=C(\N/C(=N/[H])Nc1ccc(Cl)cc1)NC(C)C [Proguanil]
Cholesterol-free media + simvastatin (0.04 μM) [1, 19]: 1.355
Difference [1, 21]: −0.18
Difference [2, 22]: −0.09
Cholesterol-free [2, 23]: 1.148
Complete [2, 24]: 1.059

NC1=NCC2c3ccccc3Cc3ccccc3N12 (stereo not shown) [Epinastine]
Cholesterol-free media + simvastatin (0.04 μM) [1]: 0.9831
Complete Media [1]: 0.9656
Difference [1]: −0.02
Cholesterol-free [2]: 0.9643
Complete [2]: 0.9792
Difference [2]: 0.01

CC1=C(C)C(=O)C(C(CCCCCC(=O)O)c2ccccc2)=C(C)C1=O (stereo not shown) [Seratrodast]
Cholesterol-free media + simvastatin (0.04 μM) [1, 27]: 0.9305
Complete Media [1, 24]: 1.335
Difference [1, 10]: 0.40
Difference [2, 11]: 0.00
Cholesterol-free [2, 12]: 0.9876
Complete [2, 13]: 0.9904

COc1ccc(NC(=O)c2ccc(C(=N)N(C)C)cc2)c(C(=O)Nc2ccc(Cl)cn2)c1 [Betrixaban]
Cholesterol-free media + simvastatin (0.04 μM) [1, 25]: 1.424
Complete Media [1, 28]: 0.7486
Difference [1, 21]: −0.68
Cholesterol-free [2, 12]: 0.6104
Complete [2, 13]: 1.062
Difference [2, 26]: 0.45

COc1ccc2[nH]cc(CCNC(C)=O)c2c1 [Melatonin]
Cholesterol-free media + simvastatin (0.04 μM) [1, 27]: 1.501
Complete Media [1, 24]: 1.753
Difference [1, 10]: 0.25
Difference [2, 11]: 0.05
Cholesterol-free [2, 12]: 0.9489
Complete [2, 13]: 0.9969

CC(O)c1cc(C(=O)N[C@@H](C)Cn2ccc(-c3ccc(C#N)c(Cl)c3)n2)[nH]n1 (stereo partly shown) [Darolutamide]
Cholesterol-free media + simvastatin (0.04 μM) [1, 8]: 0.9075
Complete Media [1, 9]: 0.9966
Difference [1, 10]: 0.09
Difference [2, 11]: −0.20
Cholesterol-free [2, 6]: 1.263
Complete ([2]; NCI-H292 cells, complete media): 1.061

NC(=O)OCC(COC(N)=O)c1ccccc1 [Felbamate]
Cholesterol-free media + simvastatin (0.04 μM) [1, 19]: 1.169
Complete Media [1, 20]: 0.9237
Difference [1, 21]: −0.25
Cholesterol-free [2, 12]: 0.9609
Complete [2, 13]: 1.103
Difference [2, 26]: 0.14

CCN1CC(CCN2CCOCC2)C(c2ccccc2)(c2ccccc2)C1=O (stereo not shown) [Doxapram (hydrochloride hydrate)]
Cholesterol-free media + simvastatin (0.04 μM) [1, 27]: 0.894
Complete Media [1, 24]: 1.128
Difference [1, 10]: 0.23
Difference [2, 16]: −1.01
Cholesterol-free [2, 17]: 2.003
Complete [2, 18]: 0.9924

OCC(O)CN1CCN(c2ccccc2)CC1 (stereo not shown) [Dropropizine]
Cholesterol-free media + simvastatin (0.04 μM) [1, 19]: 1.188
Complete Media [1, 20]: 0.9581
Difference [1, 21]: −0.23
Difference [2, 16]: −0.56
Cholesterol-free [2, 17]: 1.559
Complete [2, 18]: 1

NCC1(CC(=O)O)CCCCC1 [Gabapentin (hydrochloride)]
Cholesterol-free media + simvastatin (0.04 μM) [1, 3]: 1.09
Complete Media [1, 4]: 1.102
Difference [1, 14]: 0.01
Difference [2, 15]: −0.52
Cholesterol-free [2, 17]: 1.513
Complete [2, 18]: 0.9969
